These results are taken from publication PMC4457528, “Identification of Novel Small Molecule Inhibitors of Oncogenic RET Kinase” (PLoS ONE, 2015).

Common to all, as to test: KinomeScan kinase panel, single concentration 10 µM
Common to all, as to type: binding

Assay [1] deals with T1, KinomeScan kinase panel (Homo sapiens, UniProt Q13188).
T1 construct: purchased DiscoveRx (KinomeScan)
T1 sequence (Q13188 1-491): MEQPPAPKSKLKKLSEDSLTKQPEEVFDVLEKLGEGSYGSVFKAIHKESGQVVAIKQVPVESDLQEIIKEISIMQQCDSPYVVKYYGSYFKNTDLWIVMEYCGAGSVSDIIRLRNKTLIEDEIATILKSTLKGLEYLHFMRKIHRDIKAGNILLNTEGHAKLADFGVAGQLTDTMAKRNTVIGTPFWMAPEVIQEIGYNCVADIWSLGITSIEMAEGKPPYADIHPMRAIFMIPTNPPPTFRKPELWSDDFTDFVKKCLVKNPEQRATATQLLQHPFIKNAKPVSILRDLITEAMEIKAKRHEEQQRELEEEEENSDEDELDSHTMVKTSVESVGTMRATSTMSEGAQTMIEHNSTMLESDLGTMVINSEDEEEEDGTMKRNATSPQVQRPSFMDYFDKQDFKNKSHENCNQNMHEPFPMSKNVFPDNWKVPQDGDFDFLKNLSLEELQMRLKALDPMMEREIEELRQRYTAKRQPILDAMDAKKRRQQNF
The note with it: MST2, 10 µM; read-out: score (%).

Assay [2] has as its target T2, KinomeScan kinase panel (Homo sapiens, UniProt Q13705).
T2 construct: purchased DiscoveRx (KinomeScan)
The note with it: ACVR2B, 10 µM.

Assay [3] has as its target T3, KinomeScan kinase panel (Homo sapiens, UniProt Q99683).
T3 construct: purchased DiscoveRx (KinomeScan)
T3 sequence (Q99683 1-1374): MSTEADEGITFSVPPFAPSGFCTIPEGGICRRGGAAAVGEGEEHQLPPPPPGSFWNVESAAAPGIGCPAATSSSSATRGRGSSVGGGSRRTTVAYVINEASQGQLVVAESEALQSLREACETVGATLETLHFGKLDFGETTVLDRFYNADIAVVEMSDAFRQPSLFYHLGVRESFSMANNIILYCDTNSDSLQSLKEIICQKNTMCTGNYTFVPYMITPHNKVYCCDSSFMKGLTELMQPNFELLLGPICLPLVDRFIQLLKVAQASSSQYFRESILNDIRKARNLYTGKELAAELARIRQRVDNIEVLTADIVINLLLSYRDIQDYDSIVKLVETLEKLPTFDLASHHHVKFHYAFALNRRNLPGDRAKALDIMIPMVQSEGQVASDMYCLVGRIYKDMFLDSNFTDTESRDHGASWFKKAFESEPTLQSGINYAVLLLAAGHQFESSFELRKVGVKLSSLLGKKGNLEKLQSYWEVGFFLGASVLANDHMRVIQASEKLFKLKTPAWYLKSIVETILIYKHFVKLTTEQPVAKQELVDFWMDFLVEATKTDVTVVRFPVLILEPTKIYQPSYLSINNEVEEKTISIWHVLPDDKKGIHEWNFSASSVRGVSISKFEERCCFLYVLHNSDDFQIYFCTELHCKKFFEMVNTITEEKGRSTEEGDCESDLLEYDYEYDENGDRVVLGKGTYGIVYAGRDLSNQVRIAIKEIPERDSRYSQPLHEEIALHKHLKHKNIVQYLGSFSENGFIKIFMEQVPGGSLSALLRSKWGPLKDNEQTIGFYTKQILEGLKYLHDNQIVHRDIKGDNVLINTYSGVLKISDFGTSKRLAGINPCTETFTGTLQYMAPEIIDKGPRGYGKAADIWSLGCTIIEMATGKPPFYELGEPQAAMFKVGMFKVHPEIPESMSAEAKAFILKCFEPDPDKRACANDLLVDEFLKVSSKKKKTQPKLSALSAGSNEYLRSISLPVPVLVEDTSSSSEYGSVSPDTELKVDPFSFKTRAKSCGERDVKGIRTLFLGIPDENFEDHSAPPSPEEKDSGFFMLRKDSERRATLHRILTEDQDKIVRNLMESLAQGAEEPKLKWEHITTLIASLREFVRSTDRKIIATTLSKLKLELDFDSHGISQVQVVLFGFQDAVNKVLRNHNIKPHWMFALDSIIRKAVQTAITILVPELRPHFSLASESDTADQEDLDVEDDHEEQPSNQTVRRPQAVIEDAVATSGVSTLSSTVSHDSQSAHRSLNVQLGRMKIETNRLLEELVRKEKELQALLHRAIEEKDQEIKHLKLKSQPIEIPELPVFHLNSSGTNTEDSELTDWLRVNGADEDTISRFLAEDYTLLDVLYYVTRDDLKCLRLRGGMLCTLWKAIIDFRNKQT
The note with it: read-out: score (%).

Assay [4] deals with T4, KinomeScan kinase panel (Homo sapiens, UniProt Q9NRM7).
T4 construct: purchased DiscoveRx (KinomeScan)
T4 sequence (Q9NRM7 1-1088): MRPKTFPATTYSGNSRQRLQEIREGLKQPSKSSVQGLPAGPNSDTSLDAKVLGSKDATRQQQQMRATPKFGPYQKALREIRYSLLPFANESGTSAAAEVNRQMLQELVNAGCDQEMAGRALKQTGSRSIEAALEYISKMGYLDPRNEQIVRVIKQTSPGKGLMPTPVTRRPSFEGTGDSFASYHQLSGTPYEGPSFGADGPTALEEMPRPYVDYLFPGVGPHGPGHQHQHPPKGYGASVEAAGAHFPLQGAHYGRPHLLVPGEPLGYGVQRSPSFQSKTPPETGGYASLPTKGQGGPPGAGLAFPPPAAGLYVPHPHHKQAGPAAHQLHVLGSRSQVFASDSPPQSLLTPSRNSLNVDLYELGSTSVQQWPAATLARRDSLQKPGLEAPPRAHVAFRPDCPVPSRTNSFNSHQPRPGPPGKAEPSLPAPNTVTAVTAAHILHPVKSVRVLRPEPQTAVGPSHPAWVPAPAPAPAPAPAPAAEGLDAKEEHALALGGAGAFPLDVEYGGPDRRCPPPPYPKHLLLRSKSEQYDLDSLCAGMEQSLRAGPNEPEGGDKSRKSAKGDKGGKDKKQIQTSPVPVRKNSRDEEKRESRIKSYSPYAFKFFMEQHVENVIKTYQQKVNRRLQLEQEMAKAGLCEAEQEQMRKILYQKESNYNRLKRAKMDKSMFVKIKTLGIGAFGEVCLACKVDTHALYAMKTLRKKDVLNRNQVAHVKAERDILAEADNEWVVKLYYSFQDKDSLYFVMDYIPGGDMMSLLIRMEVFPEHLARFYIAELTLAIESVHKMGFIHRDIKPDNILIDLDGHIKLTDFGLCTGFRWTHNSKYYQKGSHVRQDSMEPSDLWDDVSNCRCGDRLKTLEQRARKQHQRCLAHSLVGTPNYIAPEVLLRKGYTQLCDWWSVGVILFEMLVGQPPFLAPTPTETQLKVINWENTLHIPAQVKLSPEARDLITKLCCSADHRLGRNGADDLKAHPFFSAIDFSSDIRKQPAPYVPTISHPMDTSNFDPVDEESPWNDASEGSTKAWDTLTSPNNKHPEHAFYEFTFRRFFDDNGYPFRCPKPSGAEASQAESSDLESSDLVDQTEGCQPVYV
The note with it: LATS2, 10 µM.

Read-outs that look alike come from different tables or passages of the source.

T2 sequence (Q13705 19-512): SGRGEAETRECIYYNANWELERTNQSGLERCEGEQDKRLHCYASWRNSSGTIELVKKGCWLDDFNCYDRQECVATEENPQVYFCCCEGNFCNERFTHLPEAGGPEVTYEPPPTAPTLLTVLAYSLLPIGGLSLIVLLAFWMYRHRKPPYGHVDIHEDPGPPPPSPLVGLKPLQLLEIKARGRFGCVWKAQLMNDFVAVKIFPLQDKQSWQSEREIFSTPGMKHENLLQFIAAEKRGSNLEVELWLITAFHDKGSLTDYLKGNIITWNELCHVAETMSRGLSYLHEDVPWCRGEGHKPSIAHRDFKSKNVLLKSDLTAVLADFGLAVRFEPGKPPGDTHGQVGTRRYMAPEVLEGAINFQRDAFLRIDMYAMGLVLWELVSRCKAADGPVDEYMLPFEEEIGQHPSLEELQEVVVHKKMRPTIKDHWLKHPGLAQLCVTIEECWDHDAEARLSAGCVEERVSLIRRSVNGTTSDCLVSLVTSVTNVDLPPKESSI

Turning to `CCN1CCN(Cc2ccc(NC(=O)c3ccc(C)c(NC(=O)c4cncc(-c5cccs5)c4)c3)cc2C(F)(F)F)CC1` [ALW-II-41-27], the remaining binding at 10 µM on KinomeScan kinase panel [1] was above 30%; at KinomeScan kinase panel [3] (ASK1, 10 µM), above 30%. The “score (%)” value at KinomeScan kinase panel [2] and at KinomeScan kinase panel [4] was “nb (Hits values higher than 30% were considered negative (no binding: nb))” in each case.

Turning to `CCN1CCN(Cc2ccc(NC(=O)c3ccc(C)c(/C=C/c4cnc5[nH]ccc5c4Cl)c3)cc2C(F)(F)F)CC1` [HG-6-63-01, (E)-3-(2-(4-chloro-1H-pyrrolo[2,3-b]pyridin-5-yl)vinyl)-N-(4-((4-ethylpiperazin-1-yl)methyl)-3-(trifluoromethyl)phenyl)-4-methylbenzamide], the remaining binding at 10 µM is 10% on KinomeScan kinase panel [1] and above 30% on KinomeScan kinase panel [3] (MAP3K5, 10 µM). For the same compound, the “score (%)” value at KinomeScan kinase panel [2] and at KinomeScan kinase panel [4] was “nb (Hits values higher than 30% were considered negative (no binding: nb))” in each case.

For `CCN1CCN(Cc2ccc(NC(=O)c3ccc(C)c(C#Cc4cccnc4)c3)cc2C(F)(F)F)CC1` [XMD15-44], the remaining binding at 10 µM is above 30% on KinomeScan kinase panel [1] and above 30% at KinomeScan kinase panel [3] (ASK1, 10 µM). Moreover, the “score (%)” value was “nb (Hits values higher than 30% were considered negative (no binding: nb))” at KinomeScan kinase panel [2] and 7.6% on KinomeScan kinase panel [4].
